The source of these data is paper PMC7391726, “Fatty acid mimetic PBI-4547 restores metabolic homeostasis via GPR84 in mice with non-alcoholic fatty liver disease” (Scientific Reports, 2020).

In general, EC50 refers to the concentration needed to bring the measured effect to its halfway point.

Read-outs that look alike come from different tables or passages of the source.

One assay has as its system ob/ob mice. In words: ob/ob leptin-deficient genetic mouse model of metabolic syndrome. In kind it is in vivo. An excerpt:
We next sought to confirm our above findings obtained from the diet-induced model of obesity by using the ob/ob leptin-deficient genetic mouse model of metabolic syndrome. […] Additionally, the mRNA expression profiles of glucose- and FA-related genes in liver (Fig. S4D,E) and WAT (Fig. S5) also differed between pioglitazone- and PBI-4547-treated mice.

In the next assay the target is T1, GPR84 (Homo sapiens, UniProt Q9NQS5).
T1 construct: expressed in transfected cells; host or cells: HEK293
In words: BRET Gαi2 activation biosensor in HEK293 cells transfected with GPR84. It counts as cell-based. Particulars: compound alone vs vehicle. An excerpt: PBI-4547 (2-[3,5-dipentylphenyl]acetate sodium salt) is a medium-chain FA (MCFA) mimetic (Fig. 1A). Accordingly, we examined the signaling properties of PBI-4547 on receptors known to be activated by MCFAs. […] This biosensor consisted of an Rluc8-tagged Gαi2 subunit, a GFP10-tagged Gγ2 subunit, and an untagged Gβ1. Agonist stimulation and receptor activation triggers a physical separation between the Gα-Rluc8 donor and the GFP10-Gγ2 acceptor, resulting in a decrease in BRET signal, whose amplitude is correlated to ligand efficacy. […] (A) Chemical structure of PBI-4547. (B) Gi pathway activation was monitored in HEK293 cells transfected with GPR84 and the Gαi2 activation biosensor. […] (C) β-arrestin 2 recruitment to activated GPR120 receptor was monitored in HEK293 cells transfected with RLuc8-β-arrestin 2 and GPR120-GFP10. (D) Cells transfected with GPR40 and Gαq or Gαi2 activation biosensor were exposed to increasing concentrations of PBI-4547 or to 500 µM of sodium decanoate, and BRET variation compared with vehicle was measured. Cells were exposed to increasing concentrations of PBI-4547 or to 100 µM of GW9508, and BRET variation compared with vehicle was measured. (E) LanthaScreen TR-FRET competitive binding assay of PBI-4547 and PPAR control agonists to the LBD of PPARα, PPARδ and PPARγ. (F) Cell-based GAL4 transactivation assay in HEK293 cells transfected with the LBD of PPARα, PPARδ or PPARγ, and treated with increasing concentrations of PBI-4547 or PPAR control agonists. Data in (B–D) are expressed as means ± SEM of 4–5 experiments; data in (E,F) are from a representative experiment from a total of 3 to 4 independent experiments. BRET measurements in transiently transfected HEK293 cells were performed as previously described. Ligands were incubated with cells at room temperature for 10 min (G protein biosensors) or 25 min (β-arrestin/GPR120) before collecting BRET[2] readings between Rluc8 and GFP10.
(In general: BRET reads energy transfer from a luciferase to a nearby fluorophore.)

A further assay concerns the target T2, GPR40 (Homo sapiens, UniProt O14842).
T2 construct: expressed in transfected cells; host or cells: HEK293
Set-up: method as in PMID 29454750. As to conditions: previously reported, cited from earlier work.

T2 sequence (O14842 whole entry, species assumed): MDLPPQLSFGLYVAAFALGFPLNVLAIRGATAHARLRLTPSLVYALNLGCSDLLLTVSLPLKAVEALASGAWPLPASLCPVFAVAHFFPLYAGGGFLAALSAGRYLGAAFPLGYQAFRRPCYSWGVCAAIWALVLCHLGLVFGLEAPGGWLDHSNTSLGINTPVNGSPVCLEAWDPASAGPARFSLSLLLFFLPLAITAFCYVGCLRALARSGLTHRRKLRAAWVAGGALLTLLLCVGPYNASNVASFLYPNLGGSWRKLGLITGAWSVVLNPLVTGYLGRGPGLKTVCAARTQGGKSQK
T1 sequence (Q9NQS5 whole entry, species assumed): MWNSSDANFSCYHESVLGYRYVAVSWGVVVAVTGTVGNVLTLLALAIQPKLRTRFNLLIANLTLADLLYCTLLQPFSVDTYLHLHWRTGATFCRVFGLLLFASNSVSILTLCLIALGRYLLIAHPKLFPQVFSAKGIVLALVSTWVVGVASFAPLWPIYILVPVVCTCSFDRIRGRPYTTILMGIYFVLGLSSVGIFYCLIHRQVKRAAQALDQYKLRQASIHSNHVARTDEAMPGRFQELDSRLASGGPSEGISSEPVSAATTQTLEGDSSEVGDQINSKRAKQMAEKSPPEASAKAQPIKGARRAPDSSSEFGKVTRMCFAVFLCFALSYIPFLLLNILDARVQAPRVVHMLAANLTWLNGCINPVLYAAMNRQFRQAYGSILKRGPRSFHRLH

Take `CCc1ccc(CCOc2ccc(CC3SC(=O)NC3=O)cc2)nc1` (stereo not shown) [pioglitazone, reference compound]: the bodyweight result with ob/ob mice was “increased trend towards weight gain”.
`CCCCCCCCCC(=O)[O-].[Na+]` [sodium decanoate]: at GPR84, the “GPR84/Gαi2-mediated BRET signal modulation (agonist mode)” value is given as “induced a BRET signal decrease”. In addition, the EC50 on GPR40 (Gαi2, read-out: EC50, GPR40 Gαi2) was 16 µM; on GPR40 (Gαq, read-out: EC50, GPR40 Gαq), 102 µM.
